# Test results: ChEMBL document CHEMBL1909294, “Translating clinical findings into knowledge in drug safety evaluation--drug induced liver injury prediction system (DILIps)” (PLoS Comput Biol, 2011)
# Legend:
# Hepatotoxicity [1] = system: Hepatotoxicity;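 on HepSE bilirubinemia: bilirubinemia hepatic side effect score drawn from the DILIps training data, a prediction system for drug-induced liver injury; call rule not given here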;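 on HepSE cholecystitis: Cholecystitis-related hepatic side effect score drawn from the DILIps (drug-induced liver injury prediction) training data set; call rule not given here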;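 on HepSE cholelithiasis: hepatic side effect score for cholelithiasis, drawn from the DILIps training data for predicting drug-induced liver injury; call rule not given here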;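 on HepSE cirrhosis: cirrhosis hepatic side effect score taken from the DILIps (drug-induced liver injury prediction) training set; call rule not given here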;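 on HepSE elevated liver function tests: hepatic side effect score for raised liver function tests, as recorded in the DILIps training set used for predicting drug-induced liver injury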; on HepSE hepatic failure: call rule not given here;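 on HepSE hepatomegaly: hepatic side effect score for hepatomegaly, taken from the training set of the DILIps drug-induced liver injury prediction system; call rule not given here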
# Hepatotoxicity [2] = system: Hepatotoxicity; remark: listed apart in the source;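 on HepSE bilirubinemia: bilirubinemia hepatic side effect score drawn from the DILIps training data, a prediction system for drug-induced liver injury; call rule not given here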;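 on HepSE cholecystitis: Cholecystitis-related hepatic side effect score drawn from the DILIps (drug-induced liver injury prediction) training data set; call rule not given here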;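 on HepSE cholelithiasis: hepatic side effect score for cholelithiasis, drawn from the DILIps training data for predicting drug-induced liver injury; call rule not given here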;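 on HepSE cirrhosis: cirrhosis hepatic side effect score taken from the DILIps (drug-induced liver injury prediction) training set; call rule not given here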;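 on HepSE elevated liver function tests: hepatic side effect score for raised liver function tests, as recorded in the DILIps training set used for predicting drug-induced liver injury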; on HepSE hepatic failure: call rule not given here;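 on HepSE hepatomegaly: hepatic side effect score for hepatomegaly, taken from the training set of the DILIps drug-induced liver injury prediction system; call rule not given here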
# Hepatotoxicity [3] = system: Hepatotoxicity; remark: listed apart in the source;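 on HepSE bilirubinemia: bilirubinemia hepatic side effect score drawn from the DILIps training data, a prediction system for drug-induced liver injury; call rule not given here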;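 on HepSE cholecystitis: Cholecystitis-related hepatic side effect score drawn from the DILIps (drug-induced liver injury prediction) training data set; call rule not given here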;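 on HepSE cholelithiasis: hepatic side effect score for cholelithiasis, drawn from the DILIps training data for predicting drug-induced liver injury; call rule not given here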;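 on HepSE cirrhosis: cirrhosis hepatic side effect score taken from the DILIps (drug-induced liver injury prediction) training set; call rule not given here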;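 on HepSE elevated liver function tests: hepatic side effect score for raised liver function tests, as recorded in the DILIps training set used for predicting drug-induced liver injury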; on HepSE hepatic failure: call rule not given here
# Hepatotoxicity [4] = system: Hepatotoxicity; remark: listed apart in the source;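 on HepSE bilirubinemia: bilirubinemia hepatic side effect score drawn from the DILIps training data, a prediction system for drug-induced liver injury; call rule not given here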;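 on HepSE cholecystitis: Cholecystitis-related hepatic side effect score drawn from the DILIps (drug-induced liver injury prediction) training data set; call rule not given here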;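 on HepSE cholelithiasis: hepatic side effect score for cholelithiasis, drawn from the DILIps training data for predicting drug-induced liver injury; call rule not given here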;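 on HepSE cirrhosis: cirrhosis hepatic side effect score taken from the DILIps (drug-induced liver injury prediction) training set; call rule not given here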;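 on HepSE elevated liver function tests: hepatic side effect score for raised liver function tests, as recorded in the DILIps training set used for predicting drug-induced liver injury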; on HepSE hepatic failure: call rule not given here
# Hepatotoxicity [5] = system: Hepatotoxicity; remark: listed apart in the source; on HepSE hepatic failure: call rule not given here
# Hepatotoxicity [6] = system: Hepatotoxicity; remark: listed apart in the source; on HepSE hepatic failure: call rule not given here
# Hepatotoxicity [7] = system: Hepatotoxicity; remark: listed apart in the source
# Hepatotoxicity [8] = system: Hepatotoxicity; remark: listed apart in the source
# Hepatotoxicity [9] = system: Hepatotoxicity; remark: listed apart in the source
# Hepatotoxicity [10] = system: Hepatotoxicity; remark: listed apart in the source
# Hepatotoxicity [11] = system: Hepatotoxicity; remark: listed apart in the source
# Hepatotoxicity [12] = system: Hepatotoxicity; remark: listed apart in the source
# Hepatotoxicity [13] = system: Hepatotoxicity; remark: listed apart in the source
# Hepatotoxicity [14] = system: Hepatotoxicity; remark: listed apart in the source
Compound,HepSE_bilirubinemia (Hepatotoxicity [1]),HepSE_cholecystitis (Hepatotoxicity [2]),HepSE_cholelithiasis (Hepatotoxicity [3]),HepSE_cirrhosis (Hepatotoxicity [4]),HepSE_elevated liver function tests (Hepatotoxicity [5]),HepSE_hepatic failure (Hepatotoxicity [6]),HepSE_hepatic necrosis (Hepatotoxicity [7]),HepSE_hepatitis (Hepatotoxicity [8]),HepSE_hepatomegaly (Hepatotoxicity [9]),HepSE_jaundice (Hepatotoxicity [10]),HepSE_liver disease (Hepatotoxicity [11]),HepSE_liver fatty (Hepatotoxicity [12]),HepSE_liver function tests abnormal (Hepatotoxicity [13]),HepSE_Combined Scores (Hepatotoxicity [14]),other results
CCOC(=O)Nc1ccc2c(c1)N(C(=O)CCN1CCOCC1)c1ccccc1S2 [MORICIZINE],0,0,0,0,0,0,0,1,0,1,0,0,0,2,
COc1c(N2C[C@@H]3CCCN[C@@H]3C2)c(F)cc2c(=O)c(C(=O)O)cn(C3CC3)c12 [MOXIFLOXACIN],1,0,0,0,0,1,0,1,0,1,0,0,1,5,
C/C(=C\C(=O)OCCCCCCCCC(=O)O)C[C@@H]1OC[C@H](C[C@@H]2O[C@H]2[C@@H](C)[C@H](C)O)[C@@H](O)[C@H]1O [MUPIROCIN],0,0,0,0,0,0,0,0,0,0,0,0,0,0,
COc1c(C)c2c(c(O)c1C/C=C(\C)CCC(=O)O)C(=O)OC2 [MYCOPHENOLIC ACID],1,0,0,0,0,0,0,1,0,1,1,0,1,5,
CCCCCCC(C)(C)c1cc(O)c2c(c1)OC(C)(C)C1CCC(=O)CC21 (stereo unspecified) [NABILONE],0,0,0,0,0,0,0,0,0,0,0,0,0,0,
COc1ccc2cc(CCC(C)=O)ccc2c1 [NABUMETONE],0,0,0,0,1,1,0,0,0,1,0,0,0,3,
CC(C)(C)NCC(O)COc1cccc2c1CC(O)C(O)C2 (stereo unspecified) [NADOLOL],0,0,0,0,0,0,0,0,0,0,0,0,0,0,
CN(C/C=C/c1ccccc1)Cc1cccc2ccccc12 [NAFTIFINE],,,,,,,,,,,,,,,HepSE_bilirubinemia (Hepatotoxicity [1]; Liver): 0; HepSE_cholecystitis (Hepatotoxicity [2]; Liver): 0; HepSE_cholelithiasis (Hepatotoxicity [3]; Liver): 0; HepSE_cirrhosis (Hepatotoxicity [4]; Liver): 0; HepSE_elevated liver function tests (Hepatotoxicity [5]; Liver): 0; HepSE_hepatic failure (Hepatotoxicity [6]; Liver): 0; HepSE_hepatic necrosis (Hepatotoxicity [7]; Liver): 0; HepSE_hepatitis (Hepatotoxicity [8]; Liver): 0; HepSE_hepatomegaly (Hepatotoxicity [9]; Liver): 0; HepSE_jaundice (Hepatotoxicity [10]; Liver): 0; HepSE_liver disease (Hepatotoxicity [11]; Liver): 0; HepSE_liver fatty (Hepatotoxicity [12]; Liver): 0; HepSE_liver function tests abnormal (Hepatotoxicity [13]; Liver): 0; HepSE_Combined Scores (Hepatotoxicity [14]; Liver): 0
Oc1ccc2c3c1O[C@H]1[C@@H](O)CC[C@@]4(O)[C@@H](C2)N(CC2CCC2)CC[C@]314 [NALBUPHINE],0,0,0,0,0,0,0,0,0,0,0,0,0,0,
